Tests used:
[1] = biological target: full-length HAQ STING (Homo sapiens (Human), UniProt Q86WV6, G230A/H232R/R293Q/R71H); test: 3H-cGAMP filtration binding assay (HAQ STING); settings: competition with tritiated cGAMP ligand, HAQ STING membrane
From the text: The ability of compounds to bind STING is quantified by the ability to compete with tritiated cGAMP ligand for human STING receptor membrane using a radioactive filter-binding assay. The binding assay employs STING receptor obtained from Hi-Five cell membranes overexpressing full-length HAQ STING prepared in-house and tritiated cGAMP ligand also purified in-house.
(§1) The ability of compounds to bind STING is quantified by their ability to compete with tritiated cGAMP ligand for human STING receptor membrane using a radioactive filter-binding assay. The binding assay employs STING receptor obtained from Trichoplusia ni cell membranes (T.ni; Expression Systems, cat #94-002F, www.expressionsystems.com) overexpressing full-length HAQ STING and tritiated cGAMP ligand.
The basic HAQ STING filtration assay protocol is as follows:
The compounds were serially titrated by the Hamilton STARPlus CORE in a 96-well plate (Greiner, #651201) using a 1:3 ten-point dose response format. After compound preparation, a 2.2 ug/ml working concentration of STING membrane (SEQ. ID. No. 1) was prepared by diluting concentrated membrane into assay buffer (lx PBS; Invitrogen #SH30028.02) and douncing 7× using a manual tissue homogenizer (Wheaton, #357546). 148 uL of prepared membrane was then manually added to each well of a 96-well deep-well polypropylene plate (Fisher Scientific, #12-566-121). Following membrane addition, 2 uL of either titrated test compound, DMSO control (Sigma #276855), or cold cGAMP control was added to the appropriate wells using a BIOMEK FX. Compound and membrane then preincubated for 60 min at RT to allow compound binding to equilibrate. Following equilibration, 8 nM of [^3H]c-GAMP ligand was prepared by diluting into assay buffer, and 50 uL of this working stock was then manually added to each well of the assay plate. Plates were then incubated at RT for 60 min, and the contents of each assay plate were then filtered through a 96-well GF/B filter plate (PerkinElmer, #6005250) using a TOMTEC MACH III Cell Harvester equipped with 20 mM HEPES buffer (Fisher Scientific, #BP299500). The filter plates were then dried at 55° C. for 30 min using a pressurized oven before 30 uL of ULTIMA GOLD F scintillate was added to each well. Tritium levels for each reaction well were then measured using a PerkinElmer TopCount plate reader.
(§2) After normalization to controls, the percent activity for each compound concentration was calculated by measuring the amount of remaining radioactivity. The plot of percent activity versus the log of compound concentration was fit with a 4-parameter dose response equation to calculate EC50 values.

[2] = biological target: full-length WT STING (Homo sapiens (Human), UniProt Q86WV6, H232R); test: 3H-cGAMP filtration binding assay (WT STING); settings: competition with tritiated cGAMP ligand, WT STING membrane; read-out: EC50
Protocol: as §1, with “#94-002F,” for “#94-002F, www.expressionsystems.com)”, “WT” for “HAQ”
The basic WT STING filtration assay protocol is as follows:
16 nM of [^3H] c-GAMP ligand was prepared by diluting into assay buffer, and 50 uL of this working stock was manually added to each well of the assay plate. After ligand addition, 2 uL of either titrated test compound, DMSO control (Sigma #276855), or cold cGAMP control was added to the appropriate wells using a BIOMEK FX. The serially titrated compound was prepared on a Hamilton STARPlus CORE in a 96-well plate (Greiner, #651201) using a 1:3 ten-point dose response format. Following compound addition, a 2.2 ug/ml working concentration of STING membrane (SEQ. ID. No. 3) was prepared by diluting concentrated membrane into assay buffer (1×PBS; Invitrogen #SH30028.02) and douncing 7× using a manual tissue homogenizer (Wheaton, #357546). 148 uL of this prepared membrane was then manually added to each well of a 96-well deep-well polypropylene plate (Fisher Scientific, #12-566-121). Compound, ligand, and membrane then incubated for 60 min at RT before the contents of each assay plate were filtered through a 96-well GF/B filter plate (PerkinElmer, #6005250) using a TOMTEC MACH III Cell Harvester equipped with 20 mM HEPES buffer (Fisher Scientific, #BP299500). The filter plates were then dried at 55° C. for 30 min using a pressurized VWR oven before 30 uL of ULTIMA GOLD F scintillate was added to each well. Tritium levels for each reaction well were then measured using a PerkinElmer TopCount plate reader.
as §2

[3] = tested on: THP1 cells; test: IFN-β secretion in THP1 cell culture (5 h); format: cell-based, human; settings: 30 μM compound, relative to 2′3′-cGAMP at 30 μM; for activation at 30 µM: Homo sapiens, THP-1, 5 h, read-out: % Effect at 30 μM relative to 2′3′-cGAMP
Protocol: The ability of compounds to stimulate the secretion of interferon-beta from THP1 cells was measured using a human IFN-β AlphaLISA kit (Perkin Elmer, Cat. No. AL265F). The basic protocol is as follows:
A Labcyte Echo 550 acoustic dispenser was used to transfer 120 nL of compound dissolved in DMSO into the wells of an empty, sterile 384-well microplate, (Corning, Cat. No. 3712). THP1 cells (American Type Culture Collection, Cat. No. TIB202) previously frozen in Recovery Medium (Life Technologies, Cat. No. 12648-010) were thawed and immediately diluted 10-fold into 37° C. assay medium (RPMI 1640+L-Glutamine & phenol red, Life Technologies, Cat. No. 11875-085; 0.5% heat inactivated fetal bovine serum, Sigma Aldrich, Cat. No. F4135; 1 mM Sodium Pyruvate, Life Technologies, Cat. No. 11360-070; lx non-essential amino acids; Life Technologies, Cat. No. 11140-050). The cell viability and count was ascertained using a Beckman Coulter V-Cell XR cell counter. The cell suspension was centrifuged at 200×g for 5 min at RT. Cells were resuspended to a density of 0.8×10^6/mL in 37° C. assay medium. Subsequent liquid transfers were performed using either a Matrix electronic multichannel pipette or an Agilent Bravo Automated Liquid Handling Platform.
The assay was started by dispensing 40 μL of the previously prepared cell suspension into the wells of the plate containing compounds. After 5 h incubation at 37° C., 5% CO2 in a humidified atmosphere, the plate of cells and compounds was centrifuged at 200×g for 5 min at RT. From each well, 5 μL of supernatant was transferred into corresponding wells of a white 384-well plate (Perkin Elmer, Cat. No. 6005620). To these supernatant-containing wells was added 10 μL of 5× Anti-Analyte Acceptor beads (50 μg/mL of AlphaLISA HiBlock Buffer) and incubated for 30 min at RT while shaking on an orbital plate shaker. To each well was added 10 μL of 5× Biotinylated Antibody Anti-analyte (5 nM in AlphaLISA HiBlock Buffer) and incubated on an orbital plate shaker for 60 min at RT or overnight at 4° C. To each well was added 25 μL of 2×SA-Donor beads (80 μg/mL in AlphaLISA HiBlock Buffer) and incubated for 30-45 min at RT in the dark while shaking on an orbital plate shaker. The plate was then read on a Perkin Elmer Envision (λex=680 nm, λem=570 nm). The percent effect of the AlphaLISA signal at each compound concentration was calculated based on 30 uM cGAMP positive controls and 0.3% DMSO negative controls. The plot of percent effect versus the log of compound concentration was fit with a 4-parameter concentration response equation to calculate EC50 values. The test compounds were tested at concentrations 30000, 10000, 3333, 1111, 370.4, 123.4, 41.2, 13.7, 4.6, and 1.5 nM with 0.3% residual DMSO. The control compound, cGAMP was tested at concentrations 100000, 33333, 11111, 3704, 1235, 412, 137, 46, and 15 nM with 0.3% residual DMSO.
Compounds of the disclosure were evaluated for IFN-β secretion in THP1 cell culture as described above. The following table tabulates the biological data for these compounds as percent activation relative to 2′3′-cGAMP at the 30 μM concentration.

Chain of full-length WT STING (Q86WV6 whole entry, looked up, stated change not applied): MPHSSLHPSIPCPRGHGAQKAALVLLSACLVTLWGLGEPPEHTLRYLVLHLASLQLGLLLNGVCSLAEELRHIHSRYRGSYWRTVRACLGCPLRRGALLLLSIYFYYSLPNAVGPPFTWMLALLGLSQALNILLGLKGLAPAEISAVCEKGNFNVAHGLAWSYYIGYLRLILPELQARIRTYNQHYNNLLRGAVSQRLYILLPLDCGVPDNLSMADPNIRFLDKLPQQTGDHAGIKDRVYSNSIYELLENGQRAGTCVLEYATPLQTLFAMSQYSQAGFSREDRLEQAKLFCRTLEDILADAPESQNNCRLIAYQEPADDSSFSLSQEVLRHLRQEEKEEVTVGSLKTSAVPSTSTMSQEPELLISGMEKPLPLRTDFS
Chain of full-length HAQ STING (Q86WV6 whole entry, looked up, stated change not applied): as above

Structure (SMILES) | EC50 [1] [nM] | EC50 [2] [nM] | activation at 30 µM [3] [%] | % Effect at 30 μM relative to 2′3′-cGAMP [3] [%]
Nc1nc2c(ncn2[C@@H]2O[C@@H]3COP(=S)(S)O[C@H]4[C@H]5OC[C@]4(COP(O)(=S)O[C@@H]2[C@H]3F)O[C@H]5n2cnc3c(N)ncnc32)c(=O)[nH]1 (stereo partly drawn) [Example 9, 2-amino-9-[(5R,7R,8S,12aR,14R,15R, 15aS,18S)-14-(6-amino-9H-purin-9-yl)-18-fluoro-10-hydroxy-2-sulfanyl-2,10-disulfidohexahydro-14H-15,12a-(epoxymethano)-5,8-methanofuro[3,2-1][1,3,6,9,11,2,10]pentaoxadiphosphacyclotetradecin-7(12H)-yl]-1,9-dihydro-6H-purin-6-one] | 349 | 4390 | 26 | 
Nc1nc2c(ncn2[C@@H]2S[C@@H]3COP(=S)(S)O[C@H]4[C@H](F)[C@H](n5cnc6c(N)ncnc65)O[C@@H]4COP(=O)(O)O[C@@H]2[C@@H]3O)c(=O)[nH]1 (stereo partly drawn) [Example 20, 2-amino-9-[(5R,7R,8R,12aR,14R,15S,15aR,16S)-14-(6-amino-9H-purin-9-yl)-15-fluoro-10,16-dihydroxy-10-oxido-2-sulfanyl-2-sulfidooctahydro-12H-5,8-methanofuro[3,2-l][1,3,9,11,6,2,10]tetraoxathiadiphosphacyclotetradecin-7-yl]-1,9-dihydro-6H-purin-6-one] | 1 | 3 | 137 | 
Nc1nc2c(ncn2[C@@H]2O[C@@H]3COP(=S)(S)O[C@H]4C[C@H](c5cnc6c(N)ncnn56)O[C@@H]4COP(O)(=S)O[C@@H]2C3)c(=O)[nH]1 (single isomer, unassigned) [Example 7] | < 1 | < 1 |  | 173
Nc1nc2c(ncn2[C@@H]2O[C@@H]3COP(=S)(S)O[C@H]4C[C@H](n5ccc6c(N)ncnc65)O[C@@H]4COP(O)(=S)O[C@@H]2C3)c(=O)[nH]1 (single isomer, unassigned) [Example 6] | 28 | 115 |  | 91

From patent publication US11466047B2, “Cyclic di-nucleotide compounds as sting agonists” (Merck Sharp & Dohme Corp., priority 2017, dated 2022)
